Patent US20070087330A1, “Viral deconstruction through capsid assembly in vitro” (priority 2002, published 2007)

Tests used:
[1] = test system: HBV core polypeptides / HBV capsids; assay type: biochemical
Protocol: Following translation of HBV core transcript for 30 min, the translation product was diluted in 0.01% Nil(kol buffer and centrifuged on a 10-50% sucrose gradient. The supernatant was removed and the pellet was resuspended in buffer and divided into equal aliquots. To one aliquots was added apyrase (A, top) while the control was incubated in buffe alone (A, bottom). Incubations were done at 25° C. for 90 min. Reaction mixtures were then centrifuged on standard 10-50% sucrose gradients. Fractions were analyzed by SDS-PAGE and autoradiography. In a separate experiment (B) the pellet was isolated and resuspended in identical fashion. To one aliquot was added wheat germ extract as well as unlabeled energy mix. (B, top); to the second aliquot was added wheat germ extract and apyrase (B, botton).
To address this, pellet material was isolated by fractionating the products of a 30-min translation of HBV core on a sucrose gradient and resuspending the pellet in buffer. The resuspended pellet was divided into equal aliquots and treated either with aphyase or with buffer for 90 min at 24° C.
Treatment of the isolated pellet with apyrase and wheat germ extract (FIG. 23B, bottom).

[2] = test system: HIV capsid assembly (Gag Pr55); assay: Cell-free HIV capsid assembly in wheat germ extract, analysed by velocity sedimentation; assay type: biochemical
Protocol: Translation of the transcription products was carried out in wheat germ extract containing ^35S methionine (ICN Pharmaceuticals, Costa Mesa, Calif.). Wheat germ was obtained from General Mills. Wheat germ extract was prepared as described by Erickson and Blobel (1983) supra with indicated modifications. Three grams of wheat germ were placed in a mortar and ground in 10 ml homogenization buffer (100 mM K-acetate, 1 mM Mg-acetate, 2 mM CaC12, 40 mM HEPES buffer, pH 7.5 (Sigma Chemicals, St. Louis, Mo.), 4 mM dithiothreitol) to a thick paste. The homogenate was scraped into a chilled centrifuge tube and centrifuged at 4° C. for 10 min at 23,000×g. The resulting supernatant was centrifuged again under these conditions to provide an S23 wheat germ extract. Improved assembly was obtained when the S23 wheat germ extract was further subjected to ultracentrifugation at 50,000 rpm in the TLA 100 rotor (100,000×g) (Beckman Instruments, Palo Alto, Calif.) for 15 min at 4° C. and the supernatant used for in vitro translation. […] This supernatant is referred to herein as a “high speed wheat germ extract supernatant”. Reactions were performed as previously described (Lingappa, J. R., et al., J. Cell. Biol. (1984) 125:99-111), except for modifications noted below.
A 25 μl wheat germ transcription/translation reaction mixture contained: 5 μl Gag transcript, 5 μl ^35—S Energy Mix 5× stock (Sigma Chemical Co., St. Louis, Mo.), 2.5 μl Compensating Buffer (Sigma Chemical Co.), 1.0 μl 40 mM MgAcetate (Sigma Chemical Co.), 2.0 μl 125 μM Myristoyl CoA (made up in 20 mM Tris Acetate, pH 7.6; Sigma Chemical Co.), 3.75 μl 20 mM Tris Acetate buffer, […] (U.S. Biochemicals; Cleveland, Ohio), 0.25 μl creatine kinase (4 mg/ml stock in 50% glycerol, 10 mM Tris Acetate; Boehringer Mannheim, Indianapolis, Ind.), 0.25 μl bovine tRNA (10 mg/ml stock; Sigma Chemical Co.), and 0.25 μl RNAse Inhibitor (20 units/50; Promega). […]
The purpose of this experiment was to use the cell-free system for detecting HIV assembly intermediates that would be otherwise difficult or impossible to detect. A continuously labeled cell-free reaction was analyzed by velocity sedimentation. […] Upon completion of the cell-free reaction, the products were diluted into 1% NP40 sample buffer on ice, and were analyzed by velocity sedimentation on 13 ml 15-60% sucrose gradients. Fractions were collected from the top of each gradient, and the amount of radiolabeled Pr55 protein in each fraction was determined and expressed as percent of total Pr55 protein present in the reaction. The calculated positions of 10S, 80S, 150S, 500S, and 750S complexes are indicated with markers above the figures (see FIG. 3A). […]

Chain of HBV core polypeptides / HBV capsids (P03146 whole entry): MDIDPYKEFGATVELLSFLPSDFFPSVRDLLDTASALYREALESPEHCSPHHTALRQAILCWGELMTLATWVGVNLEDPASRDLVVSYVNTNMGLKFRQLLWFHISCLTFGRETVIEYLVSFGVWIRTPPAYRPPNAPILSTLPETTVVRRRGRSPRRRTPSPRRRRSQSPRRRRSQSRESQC

O=C(O)CN(CCN(CC(=O)O)CC(=O)O)CC(=O)O [EDTA]
Effect on relative distribution of labeled core polypeptides in top, middle and pellet regions ([1]; 10 mM, translation products treated): had no effect

apyrase
Effect of treating the isolated pellet material ([1]; pellet of a 30-min translation, 90 min at 24° C.): release of completed capsids from the pellet | A (material in fractions of assembly intermediate complex A) ([2]; radiolabeled Pr55 in 10S complex A, apyrase added post-translationally, detergent cotranslationally): 2851 | B/C (material in fractions of assembly intermediate complexes B and C) ([2]; radiolabeled Pr55 in 80S/150S complexes B and C, apyrase added post-translationally, detergent cotranslationally): 5999 | Final Capsid (material in fractions of the completed capsid) ([2]; radiolabeled Pr55 in 750S completed capsid position, apyrase added post-translationally, detergent cotranslationally): 133 | Effect of treatment on assembly intermediates ([2]; velocity sedimentation, compared with the untreated reaction): accumulation of additional material in complexes B and C

CC[C@H]1CN2CCc3cc(OC)c(OC)cc3[C@@H]2C[C@@H]1C[C@H]1NCCc2cc(OC)c(OC)cc21 [emetine]
Effect on results of treating the isolated pellet with energy substrates or apyrase ([1]; protein synthesis inhibitor added): did not affect
